Data taken from patent US11530222B2, “Substituted pyrrolopyrimidine and pyrazolopyrimidine as Bruton's tyrosine kinase (BTK) degraders” (ACCUTAR BIOTECHNOLOGY INC., priority 2021, dated 2022).

molecular target: T1, BTK (Homo sapiens, UniProt Q06187); assay: BTK degradative activity in a RAMOS cell line (Western blot); type: cell-based; conditions: 6 hours after administration, read-out: RAMOS BTK Degradation DC50
T1 construct: BTK Degradative Activity of Exemplary Compounds of the Present Disclosure in a RAMOS Cell Line; host or cells: RAMOS
T1 sequence (Q06187 whole entry): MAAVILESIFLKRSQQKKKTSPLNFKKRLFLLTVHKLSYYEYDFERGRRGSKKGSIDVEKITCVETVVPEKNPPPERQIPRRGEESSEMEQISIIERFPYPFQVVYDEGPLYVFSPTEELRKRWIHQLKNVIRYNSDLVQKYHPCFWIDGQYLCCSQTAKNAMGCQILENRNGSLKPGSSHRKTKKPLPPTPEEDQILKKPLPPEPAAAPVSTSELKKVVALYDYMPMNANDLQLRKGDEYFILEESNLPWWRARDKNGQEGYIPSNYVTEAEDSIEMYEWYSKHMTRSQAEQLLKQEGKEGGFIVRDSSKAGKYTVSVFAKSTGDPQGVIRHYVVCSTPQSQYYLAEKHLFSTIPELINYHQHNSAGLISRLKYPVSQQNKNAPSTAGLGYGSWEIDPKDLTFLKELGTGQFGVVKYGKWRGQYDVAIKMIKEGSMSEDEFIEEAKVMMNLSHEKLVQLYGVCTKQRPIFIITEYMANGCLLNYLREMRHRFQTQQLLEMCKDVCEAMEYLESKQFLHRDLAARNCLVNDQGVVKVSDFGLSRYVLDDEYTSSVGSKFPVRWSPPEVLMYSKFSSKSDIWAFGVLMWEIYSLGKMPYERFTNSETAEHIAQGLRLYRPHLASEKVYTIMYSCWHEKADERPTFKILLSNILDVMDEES
Description: RAMOS (ATCC) cells were plated in 24-well plates at 8×10^5 cells/well in the RPMI growth medium containing 10% heat-inactivated FBS and 1× Penicillin Streptomycin, and then incubated at 37° C. overnight. The following day, the test compound was administered to the cells by using 1000× compound stock solution prepared in DMSO at various concentrations. After administration of the compound, the cells were then incubated at 37° C. for 6 hours.
Upon completion, the cells were collected by centrifugation and lysed in Laemmli sample buffer (1×; VWR International). Proteins in cell lysate were separated by SDS-PAGE and transferred to Odyssey nitrocellulose membranes (Licor) with Iblot® dry blotting transfer system (ThermoFisher). Nonspecific binding was blocked by incubating membranes with Intercept Blocking Buffer (Licor) for 1 hour at room temperature with gentle shaking. The membranes were then incubated overnight at 4° C. with primary antibodies anti-BTK (Cell signaling, cat. #8547) and anti-GAPDH (Cell signaling, cat. #5179) diluted in Intercept Blocking Buffer containing 0.1% Tween 20. After washing 3 times with TBS-T, the membranes were incubated with IRDye® 800CW goat anti-mouse IgG (1:20,000, Licor) or IRDye® 800CW goat anti-rabbit IgG (1:20,000, Licor) for 1 hour. After TBS-T washes, membranes were rinsed in TBS and scanned on Odyssey® CLx Imaging System (Licor). The bands were quantified using Image Studio™ Software (Licor).
Table 3 summarizes the BTK degradative activity of exemplary compounds of the present disclosure in a RAMOS cell line 6 hours after administration. The DC50 values (i.e., the concentration of test compound at which 50% of the target protein is degraded) were calculated. A designation of “A” corresponds to a DC50 value less than 10 nM. A designation of “B” corresponds to a DC50 value greater than or equal to 10 nM and less than 100 nM. A designation of “C” corresponds to a DC50 value greater than or equal to 100 nM.

| SMILES | DC50 |
| --- | --- |
| O=C1CCC(N2C(=O)c3ccc(N4CCN(C5CC(CC(=O)N6CCC(Nc7ncnc8[nH]cc(C(=O)c9ccc(Oc%10ccccc%10)cc9Cl)c78)CC6)C5)CC4)cc3C2=O)C(=O)N1 (stereo not drawn) [Compound 37, 5-(4-(3-(2-(4-((5-(2-chloro-4-phenoxybenzoyl)-7H-pyrrolo[2,3-d]pyrimidin-4-yl)amino)piperidin-1-yl)-2-oxoethyl)cyclobutyl)piperazin-1-yl)-2-(2,6-dioxopiperidin-3-yl)isoindoline-1,3-dione] | 0.01 to 0.1 µM |
| O=C1CCC(N2C(=O)c3cccc(C#CCCCCCC(=O)N4CCC(Nc5ncnc6[nH]cc(C(=O)c7ccc(Oc8ccccc8)cc7Cl)c56)CC4)c3C2=O)C(=O)N1 (stereo not drawn) [Compound 38, 4-(8-(4-((5-(2-chloro-4-phenoxybenzoyl)-7H-pyrrolo[2,3-d]pyrimidin-4-yl)amino)piperidin-1-yl)-8-oxooct-1-yn-1-yl)-2-(2,6-dioxopiperidin-3-yl)isoindoline-1,3-dione] | ≥ 0.1 µM |
| O=C1CCC(N2Cc3c(C#CCCCCCCC(=O)N4CCC(Nc5ncnc6[nH]cc(C(=O)c7ccc(Oc8ccccc8)cc7Cl)c56)CC4)cccc3C2=O)C(=O)N1 (stereo not drawn) [Compound 39, 3-(4-(9-(4-((5-(2-chloro-4-phenoxybenzoyl)-7H-pyrrolo[2,3-d]pyrimidin-4-yl)amino)piperidin-1-yl)-9-oxonon-1-yn-1-yl)-1-oxoisoindolin-2-yl)piperidine-2,6-dione] | ≥ 0.1 µM |
| O=C1CCC(N2Cc3c(C#CCCCCCC(=O)N4CCC(Nc5ncnc6[nH]cc(C(=O)c7ccc(Oc8ccccc8)cc7Cl)c56)CC4)cccc3C2=O)C(=O)N1 (stereo not drawn) [Compound 40, 3-(4-(8-(4-((5-(2-chloro-4-phenoxybenzoyl)-7H-pyrrolo[2,3-d]pyrimidin-4-yl)amino)piperidin-1-yl)-8-oxooct-1-yn-1-yl)-1-oxoisoindolin-2-yl)piperidine-2,6-dione] | ≥ 0.1 µM |
| O=C1CCC(N2Cc3c(C#CCCCCC(=O)N4CCC(Nc5ncnc6[nH]cc(C(=O)c7ccc(Oc8ccccc8)cc7Cl)c56)CC4)cccc3C2=O)C(=O)N1 (stereo not drawn) [Compound 41, 3-(4-(7-(4-((5-(2-chloro-4-phenoxybenzoyl)-7H-pyrrolo[2,3-d]pyrimidin-4-yl)amino)piperidin-1-yl)-7-oxohept-1-yn-1-yl)-1-oxoisoindolin-2-yl)piperidine-2,6-dione] | ≥ 0.1 µM |
| O=C1CC[C@H](N2Cc3cc(N4CCN(C5CC(CC(=O)N6CCC(Nc7ncnc8[nH]cc(C(=O)c9ccc(Oc%10ccccc%10)cc9Cl)c78)CC6)C5)CC4)ccc3C2=O)C(=O)N1 (stereo partly drawn) [Compound 42, (S)-3-(5-(4-(3-(2-(4-((5-(2-chloro-4-phenoxybenzoyl)-7H-pyrrolo[2,3-d]pyrimidin-4-yl)amino)piperidin-1-yl)-2-oxoethyl)cyclobutyl)piperazin-1-yl)-1-oxoisoindolin-2-yl)piperidine-2,6-dione] | < 0.01 µM |
| O=C1CCC(N2C(=O)c3ccc(N4CCN(C5CC(CC(=O)N6CCC[C@@H](Nc7ncnc8[nH]cc(C(=O)c9ccc(Oc%10ccccc%10)cc9Cl)c78)C6)C5)CC4)cc3C2=O)C(=O)N1 (stereo partly drawn) [Compound 43, 5-(4-(3-(2-((R)-3-((5-(2-chloro-4-phenoxybenzoyl)-7H-pyrrolo[2,3-d]pyrimidin-4-yl)amino)piperidin-1-yl)-2-oxoethyl)cyclobutyl)piperazin-1-yl)-2-(2,6-dioxopiperidin-3-yl)isoindoline-1,3-dione] | < 0.01 µM |
| O=C1CCC(N2C(=O)c3ccc(N4CCN(CCC5CCN(c6ccc(Nc7ncnc8[nH]cc(C(=O)c9ccc(Oc%10ccccc%10)cc9Cl)c78)cc6F)CC5)CC4)cc3C2=O)C(=O)N1 (stereo not drawn) [Compound 44, 5-(4-(2-(1-(4-((5-(2-chloro-4-phenoxybenzoyl)-7H-pyrrolo[2,3-d]pyrimidin-4-yl)amino)-2-fluorophenyl)piperidin-4-yl)ethyl)piperazin-1-yl)-2-(2,6-dioxopiperidin-3-yl)isoindoline-1,3-dione] | ≥ 0.1 µM |
| O=C1CC[C@H](N2Cc3cc(N4CCN(CCC5CCN(c6ccc(Nc7ncnc8[nH]cc(C(=O)c9ccc(Oc%10ccccc%10)cc9Cl)c78)cc6F)CC5)CC4)ccc3C2=O)C(=O)N1 [Compound 45, (S)-3-(5-(4-(2-(1-(4-((5-(2-chloro-4-phenoxybenzoyl)-7H-pyrrolo[2,3-d]pyrimidin-4-yl)amino)-2-fluorophenyl)piperidin-4-yl)ethyl)piperazin-1-yl)-1-oxoisoindolin-2-yl)piperidine-2,6-dione] | ≥ 0.1 µM |
| O=C1CC[C@H](N2Cc3cc(N4CCN(CC5CCN(c6ccc(Nc7ncnc8[nH]cc(C(=O)c9ccc(Oc%10ccccc%10)cc9Cl)c78)cc6F)CC5)CC4)ccc3C2=O)C(=O)N1 [Compound 46, (S)-3-(5-(4-((1-(4-((5-(2-chloro-4-phenoxybenzoyl)-7H-pyrrolo[2,3-d]pyrimidin-4-yl)amino)-2-fluorophenyl)piperidin-4-yl)methyl)piperazin-1-yl)-1-oxoisoindolin-2-yl)piperidine-2,6-dione] | ≥ 0.1 µM |
| O=C1CCC(N2C(=O)c3ccc(N4CCN(CC5CCN(c6ccc(Nc7ncnc8[nH]cc(C(=O)c9ccc(Oc%10ccccc%10)cc9Cl)c78)cc6F)CC5)CC4)cc3C2=O)C(=O)N1 (stereo not drawn) [Compound 47, 5-(4-((1-(4-((5-(2-chloro-4-phenoxybenzoyl)-7H-pyrrolo[2,3-d]pyrimidin-4-yl)amino)-2-fluorophenyl)piperidin-4-yl)methyl)piperazin-1-yl)-2-(2,6-dioxopiperidin-3-yl)isoindoline-1,3-dione] | ≥ 0.1 µM |
| O=C1CCC(N2C(=O)c3ccc(N4CCC(N5CC(CC(=O)N6CCC(Nc7ncnc8[nH]cc(C(=O)c9ccc(Oc%10ccccc%10)cc9Cl)c78)CC6)C5)CC4)cc3C2=O)C(=O)N1 (stereo not drawn) [Compound 48, 5-(4-(3-(2-(4-((5-(2-chloro-4-phenoxybenzoyl)-7H-pyrrolo[2,3-d]pyrimidin-4-yl)amino)piperidin-1-yl)-2-oxoethyl)azetidin-1-yl)piperidin-1-yl)-2-(2,6-dioxopiperidin-3-yl)isoindoline-1,3-dione] | < 0.01 µM |
| COc1ccc(C(=O)N2CCN(CCCCCC(=O)N3CCC(Nc4ncnc5[nH]cc(C(=O)c6ccc(Oc7ccccc7)cc6Cl)c45)CC3)CC2)cc1N1CCC(=O)NC1=O [Compound 71, 1-(5-(4-(6-(4-((5-(2-chloro-4-phenoxybenzoyl)-7H-pyrrolo[2,3-d]pyrimidin-4-yl)amino)piperidin-1-yl)-6-oxohexyl)piperazine-1-carbonyl)-2-methoxyphenyl) dihydropyrimidine-2,4(1H,3H)-dione] | 0.01 to 0.1 µM |
| COc1ccc(C(=O)N2CCN(CCCCC(=O)N3CCC(Nc4ncnc5[nH]cc(C(=O)c6ccc(Oc7ccccc7)cc6Cl)c45)CC3)CC2)cc1N1CCC(=O)NC1=O [Compound 72, 1-(5-(4-(5-(4-((5-(2-chloro-4-phenoxybenzoyl)-7H-pyrrolo[2,3-d]pyrimidin-4-yl)amino)piperidin-1-yl)-5-oxopentyl)piperazine-1-carbonyl)-2-methoxyphenyl)dihydropyrimidine-2,4(1H,3H)-dione] | ≥ 0.1 µM |
| COc1ccc(C(=O)N2CCC(N3CCC(CC(=O)N4CCC(Nc5ncnc6[nH]cc(C(=O)c7ccc(Oc8ccccc8)cc7Cl)c56)CC4)CC3)CC2)cc1N1CCC(=O)NC1=O [Compound 73, 1-(5-(4-(2-(4-((5-(2-chloro-4-phenoxybenzoyl)-7H-pyrrolo[2,3-d]pyrimidin-4-yl)amino)piperidin-1-yl)-2-oxoethyl)-[1,4′-bipiperidine]-1′-carbonyl)-2-methoxyphenyl)dihydropyrimidine-2,4(1H,3H)-dione] | 0.01 to 0.1 µM |
| COc1ccc(C(=O)N2CCN(CC3CCN(c4ccc(Nc5ncnc6[nH]cc(C(=O)c7ccc(Oc8ccccc8)cc7Cl)c56)cc4F)CC3)CC2)cc1N1CCC(=O)NC1=O [Compound 74, 1-(5-(4-((1-(4-((5-(2-chloro-4-phenoxybenzoyl)-7H-pyrrolo[2,3-d]pyrimidin-4-yl)amino)-2-fluorophenyl)piperidin-4-yl)methyl)piperazine-1-carbonyl)-2-methoxyphenyl)dihydropyrimidine-2,4(1H,3H)-dione] | ≥ 0.1 µM |
| COc1ccc(C(=O)N2CCCN(CC3CCN(c4ccc(Nc5ncnc6[nH]cc(C(=O)c7ccc(Oc8ccccc8)cc7Cl)c56)cc4F)CC3)CC2)cc1N1CCC(=O)NC1=O [Compound 75, 1-(5-(4-((1-(4-((5-(2-chloro-4-phenoxybenzoyl)-7H-pyrrolo[2,3-d]pyrimidin-4-yl)amino)-2-fluorophenyl)piperidin-4-yl)methyl)-1,4-diazepane-1-carbonyl)-2-methoxyphenyl)dihydropyrimidine-2,4(1H,3H)-dione] | 0.01 to 0.1 µM |
| COc1ccc(C(=O)N2CCN(CCC3CCN(c4ccc(Nc5ncnc6[nH]cc(C(=O)c7ccc(Oc8ccccc8)cc7Cl)c56)cc4F)CC3)CC2)cc1N1CCC(=O)NC1=O [Compound 76, 1-(5-(4-(2-(1-(4-((5-(2-chloro-4-phenoxybenzoyl)-7H-pyrrolo[2,3-d]pyrimidin-4-yl)amino)-2-fluorophenyl)piperidin-4-yl)ethyl)piperazine-1-carbonyl)-2-methoxyphenyl)dihydropyrimidine-2,4(1H,3H)-dione] | ≥ 0.1 µM |
